One assay has as its target T1, KRas G13D (Homo sapiens, UniProt P01116, G13D).
T1 construct: Biotinylated KRas (corresponding to amino acids 1-169, produced at Accelegan Inc.); biotin (biotinylated); purchased Accelegan Inc
In words: KRas binding assay (TR-FRET displacement). Background: Time-resolved FRET reads energy transfer from a long-lived donor to a nearby acceptor.

In a further assay the target is T2, KRas Q61H (Homo sapiens, UniProt P01116, Q61H).
T2 construct: Biotinylated KRas (corresponding to amino acids 1-169, produced at Accelegan Inc.); biotin (biotinylated); purchased Accelegan Inc
As to the kind of experiment: KRas binding assay (TR-FRET displacement).

The target in another assay is KRas G12D (Homo sapiens, UniProt P01116, G12D). In words: biochemical.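 Note: TR-FRET displacement binding assay on KRas, read after a one-hour incubation at room temperature, IC50 fitted from percent-of-control values.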
The target of a further assay is KRas G12V (Homo sapiens, UniProt P01116, G12V). In words: biochemical.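 Note: KRas binding measured by TR-FRET displacement at room temperature, IC50 fitted from percent of control values.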
The next assay concerns the target KRas G12R (Homo sapiens, UniProt P01116, G12R). As to the kind of experiment: biochemical.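 Note: TR-FRET displacement assay of compound binding to KRas, read after one hour at room temperature, potency from a four-parameter fit of percent-of-control values.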
The target of the next assay is KRas G12A (Homo sapiens, UniProt P01116, G12A). In words: biochemical.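 Note: binding to KRas measured by TR-FRET displacement after one hour at room temperature, IC50 from a four-parameter fit of percent-of-control values.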
A further assay addresses KRas G12S (Homo sapiens, UniProt P01116, G12S). As to the kind of experiment: biochemical.
The target of the next assay is KRas G12C (Homo sapiens, UniProt P01116, G12C). In words: biochemical.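 Note: binding to KRas assessed by TR-FRET displacement after one hour incubation at room temperature, potency fitted from percent-of-control values.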
The next assay concerns the target KRas WT (Homo sapiens, UniProt P01116). In words: biochemical.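 Note: binding to KRas read as TR-FRET displacement after a one-hour room-temperature incubation, IC50 derived from percent-of-control values.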

Sequence of KRas G12R (P01116 1-169 isoform P01116-2 G12R): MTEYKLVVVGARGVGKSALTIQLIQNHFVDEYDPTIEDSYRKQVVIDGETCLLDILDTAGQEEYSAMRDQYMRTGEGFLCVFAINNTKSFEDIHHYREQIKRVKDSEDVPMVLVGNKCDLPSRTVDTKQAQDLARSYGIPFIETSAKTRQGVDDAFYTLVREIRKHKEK
T2 sequence (P01116 1-169 isoform P01116-2 Q61H): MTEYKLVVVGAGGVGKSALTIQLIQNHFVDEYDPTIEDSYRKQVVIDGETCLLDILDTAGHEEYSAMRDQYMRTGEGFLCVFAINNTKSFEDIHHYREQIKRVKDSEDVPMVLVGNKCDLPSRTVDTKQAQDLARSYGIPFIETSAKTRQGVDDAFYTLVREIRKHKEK
Sequence of KRas WT (P01116 1-169 isoform P01116-2): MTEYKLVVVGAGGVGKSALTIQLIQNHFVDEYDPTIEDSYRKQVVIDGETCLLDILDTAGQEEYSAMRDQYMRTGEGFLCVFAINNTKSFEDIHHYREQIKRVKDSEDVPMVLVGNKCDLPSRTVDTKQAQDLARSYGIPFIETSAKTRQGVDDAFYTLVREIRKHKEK
Sequence of KRas G12V (P01116 1-169 isoform P01116-2 G12V): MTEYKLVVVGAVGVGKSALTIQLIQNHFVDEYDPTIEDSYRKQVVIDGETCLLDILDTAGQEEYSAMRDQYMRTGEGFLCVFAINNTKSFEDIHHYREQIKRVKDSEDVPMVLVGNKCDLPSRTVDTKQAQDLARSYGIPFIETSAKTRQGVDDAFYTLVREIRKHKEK
Sequence of KRas G12D (P01116 1-169 isoform P01116-2 G12D): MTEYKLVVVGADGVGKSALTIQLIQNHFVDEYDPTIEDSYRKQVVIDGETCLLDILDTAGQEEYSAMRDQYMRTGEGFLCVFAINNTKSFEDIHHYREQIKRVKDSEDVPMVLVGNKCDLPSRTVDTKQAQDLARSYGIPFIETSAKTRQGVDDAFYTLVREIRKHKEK
Sequence of KRas G12C (P01116 1-169 isoform P01116-2 G12C): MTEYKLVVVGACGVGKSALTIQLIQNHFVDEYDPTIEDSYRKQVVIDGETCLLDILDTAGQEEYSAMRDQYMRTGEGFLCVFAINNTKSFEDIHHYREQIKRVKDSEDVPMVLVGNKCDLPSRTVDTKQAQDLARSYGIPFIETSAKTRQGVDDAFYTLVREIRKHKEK
Sequence of KRas G12A (P01116 1-169 isoform P01116-2 G12A): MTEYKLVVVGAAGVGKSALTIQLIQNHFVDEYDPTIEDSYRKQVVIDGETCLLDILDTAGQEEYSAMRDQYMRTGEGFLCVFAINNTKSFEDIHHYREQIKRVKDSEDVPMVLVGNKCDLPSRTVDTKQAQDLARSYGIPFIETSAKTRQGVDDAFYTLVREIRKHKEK
T1 sequence (P01116 1-169 isoform P01116-2 G13D): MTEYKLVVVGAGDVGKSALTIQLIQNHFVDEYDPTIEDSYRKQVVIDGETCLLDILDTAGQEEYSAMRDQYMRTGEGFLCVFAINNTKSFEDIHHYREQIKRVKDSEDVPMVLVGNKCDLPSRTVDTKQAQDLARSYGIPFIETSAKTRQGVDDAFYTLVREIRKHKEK
Sequence of KRas G12S (P01116 1-169 isoform P01116-2 G12S): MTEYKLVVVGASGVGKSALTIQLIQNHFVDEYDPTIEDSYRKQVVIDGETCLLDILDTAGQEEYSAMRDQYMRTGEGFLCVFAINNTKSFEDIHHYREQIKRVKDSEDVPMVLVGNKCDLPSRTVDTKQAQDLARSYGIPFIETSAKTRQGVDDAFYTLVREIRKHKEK

By IC50 is commonly meant the point on the concentration scale where inhibition reaches its midpoint. A high value points to weaker potency. Regarding `Fc1c(-c2cccc3cccc(F)c23)ncc2c(OCCCc3cccnc3)nc(OCC34CCCN3CCC4)nc12` [Example 207, 8-fluoro-7-(8-fluoronaphthalen-1-yl)-4-(3-(pyridin-3-yl)propoxy)-2-((tetrahydro-1H-pyrrolizin-7a(5H)-yl)methoxy)pyrido[4,3-d]pyrimidine], the IC50 turned out to be 30400 nM at KRas G13D; 46400 nM at KRas Q61H; 17.3 µM against KRas G12D; 6.17 µM at KRas G12V; 13.1 µM at KRas G12R; 18.1 µM against KRas G12A. Besides, the figures for the half-maximal inhibitory concentration (IC50) against KRas G12S, against KRas G12C and at KRas WT were 46.2 µM, 11.8 µM and 26.7 µM, respectively.
As to `Fc1c(-c2cccc3cccc(F)c23)ncc2c(NCc3ccc4nccn4c3)nc(OCC34CCCN3CCC4)nc12` [Example 208, 8-fluoro-7-(8-fluoronaphthalen-1-yl)-N-(imidazo[1,2-a]pyridin-6-ylmethyl)-2-((tetrahydro-1H-pyrrolizin-7a(5H)-yl)methoxy)pyrido[4,3-d]pyrimidin-4-amine], the IC50 at KRas G13D was 6250 nM; at KRas Q61H, 7150 nM; against KRas G12D it was 17.4 µM; on KRas G12V, 0.824 µM; against KRas G12R, 0.494 µM; at KRas G12A, 1.3 µM. Also, the IC50 is 2.26 µM at KRas G12S, 0.677 µM on KRas G12C and 4.01 µM against KRas WT.
`N#Cc1cccnc1N1CCN(c2nc(OCC34CCCN3CCC4)nc3c(F)c(-c4cccc5cccc(F)c45)ncc23)CC1` [Example 209, 2-(4-(8-fluoro-7-(8-fluoronaphthalen-1-yl)-2-((tetrahydro-1H-pyrrolizin-7a(5H)-yl)methoxy)pyrido[4,3-d]pyrimidin-4-yl)piperazin-1-yl)nicotinonitrile]: the IC50 on KRas G13D came out at 13300 nM; at KRas Q61H, 12700 nM; against KRas G12D, 63.4 µM; at KRas G12V it was 2.35 µM; against KRas G12R, 1.61 µM; against KRas G12A it was 3.7 µM. The IC50 against KRas G12S was determined as 10.1 µM; against KRas G12C it was 2.52 µM; on KRas WT it was 4.96 µM.
As for `Fc1c(-c2cccc3cccc(F)c23)ncc2c(Nc3cnn(-c4ccncc4)c3)nc(OCC34CCCN3CCC4)nc12` [Example 210, 8-fluoro-7-(8-fluoronaphthalen-1-yl)-N-(1-(pyridin-4-yl)-1H-pyrazol-4-yl)-2-((tetrahydro-1H-pyrrolizin-7a(5H)-yl)methoxy)pyrido[4,3-d]pyrimidin-4-amine], the IC50 at KRas G13D is no less than 100000 nM; at KRas Q61H it was no less than 100000 nM; against KRas G12D it was no less than 100 µM; against KRas G12V it was 2.94 µM; on KRas G12R, 37.8 µM; on KRas G12A, 66.5 µM. Besides, the half-inhibitory concentration (IC50) against KRas G12S was no less than 100 µM; against KRas G12C, 43.3 µM; at KRas WT, no less than 100 µM.
`Fc1c(-c2cccc3cccc(F)c23)ncc2c(NCCNc3cccnc3)nc(OCC34CCCN3CCC4)nc12` [Example 211, N1-(8-fluoro-7-(8-fluoronaphthalen-1-yl)-2-((tetrahydro-1H-pyrrolizin-7a(5H)-yl)methoxy)pyrido[4,3-d]pyrimidin-4-yl)-N2-(pyridin-3-yl)ethane-1,2-diamine]: the IC50 on KRas G13D was 20200 nM; at KRas Q61H it was 29800 nM; against KRas G12D, no less than 100 µM; at KRas G12V it was 14.7 µM; at KRas G12R, 8.03 µM; against KRas G12A, 12.2 µM. For the same compound, the 50% inhibitory concentration (IC50) came to 18.7 µM on KRas G12S, 10.4 µM against KRas G12C and 16.9 µM against KRas WT.

The values above are taken from US12398154B2, “Azaquinazoline pan-KRas inhibitors” (Mirati Therapeutics, Inc., priority 2020, dated 2025).
